Broadly, the solubility is the concentration that dissolves in the medium under given conditions.

The subject of data set [1] is NKT cells (B6 mouse splenocytes). As to the kind of experiment: Cytokine release in vitro from mouse splenocytes (IL-4 and IFNγ ELISA). The class given is cell-based. The settings on record: for concentration at which cytokine responses plateau: 5×10^5 B6 splenocytes, IL-4 and IFNγ ELISA, FIG. 6. The procedure: To determine if PBS-57 stimulated cytokine release by NKT cells in vitro, 5×10^5 mouse splenocytes isolated from B6 mice were incubated in separate wells with 10^5, 10^4, 10^3, 100, 10 and 1 pg/mL of PBS-57 or KRN7000 in RPMI 1640 media supplemented with 10% FBS, 50 μM 2-mercaptoethanol, 2 mM glutamine and antibiotics. After 48 hours, IL-4 and IFNγ levels were measured by ELISA (BD Pharmingen).
Background: An ELISA detects its analyte on a solid surface through an enzyme-linked reagent.

Another data set in a line: Solubility in DMSO. Format: physicochemical. The settings on record: for solubility: 20 °C, organic solvent or mixture; for solubility (in words): relative to KRN7000 or fully saturated compounds. On the procedure: As with most glycolipids, solubility issues are central to handling the compounds. Compounds are usually solubilized in DMSO, and then diluted to working concentrations in aqueous solutions. […] In suitable embodiments, the compounds of the invention are at least about 10 mg/mL in DMSO under ambient conditions (approximately 20° C.). In more suitable embodiments, the compounds of the invention are at least about 20 mg/mL in DMSO at ambient temperature. In further suitable embodiments, the compounds of the invention are at least 80%, at least two-fold, or at least 4-fold relative to the solubility of KRN7000 in DMSO at ambient temperature.

For data set [2], the system named is NKT cells. In words: CD1d tetramer staining of NKT cells in rhesus macaque blood samples. Format: cell-based. The note with it: rhesus macaques, 12 samples. The source says:
(§1) To test whether PBS-57 could facilitate NKT cell binding in blood samples of both human and non-human primates, mouse and human CD1d tetramers were loaded with PBS-57 as described in Example 2. A majority of the human blood samples contained sufficient NKT cells (>0.08% of CD3-positive cells) to observe staining (14 out of 17 samples), while some samples may have contained too few NKT cells to allow detection of staining (Lee et al., 2002).

The next data set concerns NKT cell hybridomas. In words: Binding of PBS-57 loaded CD1d tetramers to NKT cell hybridomas expressing different Vβ. The note with it: hybridomas with different Vβ TCR, 37° C. 4 hours, FIG. 4. Format: cell-based. The procedure: The TCR expressed on NKT cells are limited to a invariant Vα subunit, and a variable Vβ subunit that respond to glycolipid presentation by CD1d. To determine if PBS-57 loaded tetramers were Vβ subunit specific in their ability to bind, NKT cell hybridomas expressing different Vβ were tested for their ability to bind PBS-57 loaded CD1d tetramers.
For staining of NKT cell hybridomas, soluble CD1d (sCD1d) tetramers were loaded with PBS-57 or KRN7000 by the following procedure. Stock reagents of the following were prepared: sCD1d (1 mg/ml in phosphate buffer saline (PBS)); PBS-57 (1 mg/ml in DMSO); Tween 20 (0.5% in PBS); and streptavidin-APC (80 μg/mL in PBS). 10 μL sCD1d stock, 1 μL PBS-57 stock, and 10 μL Tween 20 stock were mixed, and 79 μL PBS was added to bring the volume up to 100 μL. […] To separate unbound glycolipid, the mixture was applied to a Microcon YM30 filter (Millipore) that has been previously wetted with PBS (400 μL). The loaded membrane was centrifuged until only ˜10 μL of solution remained. The volume was then increased to 100 μL by addition of PBS. The solution was agitated to aid in freeing the protein from the filter. The Microcon unit was inverted into a fresh Eppendorf tube and the contents were centrifuged into the tube. A 10 μL aliquot of the solution was removed and the streptavidin-APC solution (5 μL) was added. […]

The test system of data set [3] is NKT cells. As to the kind of experiment: CD1d tetramer staining of NKT cells in pigtail macaque blood samples. Format: cell-based. The note with it: pigtail macaques.
Text: as §1

Data set [4] relates to NKT cells. As to the kind of experiment: CD1d tetramer staining of NKT cells in sooty mangabey blood samples. Format: cell-based. The settings on record: sooty mangabeys.
Text: as §1

Data set [5] has as its system NKT cells. As to the kind of experiment: CD1d tetramer staining of NKT cells in human blood samples. Format: cell-based. The note with it: PBS-57 loaded mouse and human CD1d tetramers.
Text: as §1

For another data set, the system named is Vα14i NKT cells. As to the kind of experiment: Staining of Vα14i NKT cells with glycolipid-loaded mouse CD1d tetramers (flow cytometry). The class given is cell-based. The settings on record: summary statement, compared with KRN7000. The procedure:
An typical means to isolate and quantify CD1 responsive NKT cells is through flow cytometry using fluorophore tagged CD1d tetramers loaded with sphingoglycolipids. To test for the ability of PBS-57 to facilitate CD1d tetramer staining, glycolipid-loaded CD1d tetramers were formed. Biotinylated mouse sCD1d molecules (in PBS) were mixed with PBS-57 or KRN7000 at a molar ratio of 1:3 (protein:lipid) and incubated overnight at room temperature. The following day, 80 μg of streptavidin-PE (Pharmagen) was added to 200 μg of the CD1-glycolipid mix and incubated at room temperature for 4 hours. Tetramers were stored at 4° C. until use.
Single cell suspensions of thymocytes and splenocytes were isolated from C57BL/6J mice (Jackson Laboratories, Bar Harbor, Me.) as known in the art. The TCR repertoire of the NKT cells was limited with an invariable Vα subunit (Vα14 in mice) and varied Vβ subunits. 10^6 cells were incubated with 200 μL staining media (2% BSA, 1% NaN3, 10 mM EDTA in PBS) with 2.4G2 (1:100; ATCC, Manassas, Va.) and Neutravidin (5 μg/200 μl; Molecular Probes, Eugene, Oreg.) for 20 minutes on ice. […] Cells were washed twice in staining media, fixed with 1% paraformaldehyde in PBS and analyzed by flow cytometry.
A general note: In flow cytometry, cells or beads pass a laser one at a time.

Data set [6] concerns NKT cells. As to the kind of experiment: CD1d tetramer staining of NKT cells in chimpanzee blood samples. Format: cell-based. The settings on record: PBS-57 loaded CD1d tetramers.
Text: as §1

Data set [7] concerns NKT cells. As to the kind of experiment: Cytokine release in vivo: serum INF-γ after intravenous injection. Set-up: species or system mouse. On the procedure:
To examine if PBS-57 elicited an immune response in vivo, the ability of PBS-57 and KRN7000 to elicit an increase in cytokine levels in a mouse was assayed. 1 mg/ml stock solutions of PBS-57 and KRN7000 in DMSO were prepared. The PBS-57 and KRN7000 solutions were diluted with PBS to 1, 100, 10^4, and 10^6 pg/mL. 100 μL of each solution was injected intravenously into 6 week-old B6 mice. Serum samples were isolated from the mice at 24 hours, and the concentration of INF-γ was assayed by ELISA (BD Pharmingen).

As for `CCCCCCCCCCCCCCCCCCCCCCCCCC(=O)N[C@@H](CO[C@H]1O[C@H](CO)[C@H](O)[C@H](O)[C@H]1O)[C@H](O)[C@H](O)CCCCCCCCCCCCCC` [KRN7000, reference compound], the “concentration at which cytokine responses plateau” value in data set [1] (48 hours) is reported as approximately 1000 pg/mL. Further, in the data set “Solubility in DMSO”, the solubility was less than 5 mg/mL and the “solubility (in words)” value is given as “relatively poor solubility in either aqueous or organic solvents”.

For the molecule `CCCCCCCCC=CCCCCCCCCCCCCCC(=O)N[C@@H](OC1OC(CNC(C)=O)C(O)C(O)C1O)C(O)[C@H](O)CCCCCCCCCCCCCC` (stereo partly drawn) [PBS-57], in [1] (48 hours), the “concentration at which cytokine responses plateau” value was “approximately 100 pg/mL”. In data set [1] (B6 splenocytes, 48 hours), the “Th1 and Th2 cytokine secretion” value was “able to induce both Th1 and Th2 cytokine secretion”. Further, the “NKT cell stimulation in vitro relative to KRN7000” value in [1] (summary statement, in vitro) is recorded as “stimulates NKT cells more effectively than KRN7000”. In the data set on NKT cells [2], the “share of blood samples with significant NKT cell staining” value was “one quarter”. In addition, the “effect of Vβ subunit variation on binding of loaded CD1d tetramers” value in the data set on NKT cell hybridomas is listed as “did not affect the binding”. Further, the “NKT cell staining in blood samples” value in the data set with NKT cells [3] and in the data set on NKT cells [4] was “No staining” throughout. For the same molecule, the “blood samples with observable NKT cell staining” value in the data set on NKT cells [5] is recorded as 14 out of 17. Moreover, the results for the solubility in “Solubility in DMSO” and in “Solubility in DMSO” (molar value printed in parentheses) were 20 mg/mL and 22.4 mM, respectively. The “solubility (in words)” value in the data set “Solubility in DMSO” is given as “relatively high solubility”. In the data set with Vα14i NKT cells, the “staining of mouse and human NKT cells (summary)” value is recorded as “as well as KRN7000”. In addition, the “blood samples with significant NKT cell staining” value in the data set with NKT cells [6] is on record as 6 out of 10. Besides, the “serum INF-γ concentration relative to KRN7000” value with NKT cells [7] (B6 mice, intravenous, 100 μL of 1 to 10^6 pg/mL, serum at 24 hours, FIG. 7) was “equal to or greater than KRN7000”. In the data set with NKT cells [7] (summary statement, in vivo), the “NKT cell stimulation in vivo relative to KRN7000” value is listed as “stimulates NKT cells more effectively than KRN7000”.

For the origin of these results see patent publication US8765692B2, “Modified-galactosyl ceramides for staining and stimulating natural killer T cells” (The Scripps Research Institute, priority 2006, dated 2014).
